Data on twelve molecules can be found in ChEMBL document CHEMBL1914281, “Discovery of novel pyridyl carboxamides as potent CCR5 antagonists and optimization of their pharmacokinetic profile in rats” (Bioorg Med Chem Lett, 2011).

The subject of data set [1] is Plasma. Description: Stability of the compound in Sprague-Dawley rat plasma. The format is ADME, cell-free.
Data set [2] can be described thus: Metabolic stability of the compound in Sprague-Dawley rat plasma assessed as compound remaining at 1 mg/kg after 30 mins. The format is ADME, organism-based. Set-up: dose 1 mg/kg. The conditions noted are these: read-out: Stability.
The nature of data set [3]: (§1) Metabolic stability of the compound in Sprague-Dawley rat plasma assessed as compound remaining at 1 mg/kg after 45 mins. The note with it: Sprague-Dawley, plasma, read-out: Stability. Set-up: dose 1 mg/kg. The class given is ADME, organism-based.
Data set [4] has as its system Human immunodeficiency virus 1. Briefly: Antiviral activity against Human immunodeficiency virus 1 Ba-L by in human HOS cells assessed as inhibition of viarl entry by luciferase reporter gene assay. The format is functional, organism-based. Background: In a reporter assay the amount or activity of a reporter protein is the signal.
In data set [5] the test system is Human immunodeficiency virus 1. Description: Antiviral activity against Human immunodeficiency virus 1 Ba-L in human PBL cells assessed as inhibition of viral replication. The format is functional, organism-based.
A short description of data set [6]: Metabolic stability of the compound in Sprague-Dawley rat plasma assessed as compound remaining at 1 mg/kg after 20 mins. The class given is ADME, organism-based. The conditions noted are these: read-out: Stability. Details: dose 1 mg/kg.
Data set [7] is described as follows: Metabolic stability of the compound in Sprague-Dawley rat plasma assessed as compound remaining at 1 mg/kg after 10 mins. The class given is ADME, organism-based. Details: dose 1 mg/kg. The conditions noted are these: read-out: Stability.
Data set [8] in a line: Metabolic stability of the compound in Sprague-Dawley rat plasma assessed as compound remaining at 1 mg/kg after 5 mins. Set-up: dose 1 mg/kg. The note with it: read-out: Stability. The format is ADME, organism-based.
A short description of data set [9]: (§2) Metabolic stability of the compound in Sprague-Dawley rat plasma assessed as compound remaining at 1 mg/kg after 60 mins. The class given is ADME, organism-based. Details: dose 1 mg/kg. The note with it: Sprague-Dawley, plasma, read-out: Stability.
Data set [10] in a line: Oral bioavailability in Sprague-Dawley rat plasma at 1 mg/kg. The class given is ADME, organism-based.
Data set [11] can be described thus: Clearance in Sprague-Dawley rat plasma at 1 mg/kg. The class given is ADME, organism-based. Details: dose 1 mg/kg.
The nature of data set [12]: Half life in Sprague-Dawley rat plasma at 1 mg/kg. The format is ADME, organism-based. Details: dose 1 mg/kg.
In data set [13] the test system is Plasma. The description is as §1. Set-up: dose 1 mg/kg. The class given is ADME, organism-based. The note with it: in vivo, 0.75 h.
Data set [14] concerns Plasma. The description is as §2. The format is ADME, organism-based. Set-up: dose 1 mg/kg. The conditions noted are these: in vivo, 1 h.
In a further data set the test system is HOS. Briefly: Cytotoxicity in human HOS cells assessed as cell death up to 1 uM. The class given is cell-based.
A further data set has as its system PBL. Description: Cytotoxicity in human PBL cells assessed as cell death up to 1 uM. The class given is cell-based.

SMILES strings stand for the structures.

Broadly, the IC50 is the concentration that inhibits the measured activity by half. On to `Cc1nc(Oc2ccc(NS(C)(=O)=O)cc2)ccc1CN1CCC(N(C(=O)Nc2cnc(C(N)=O)c(F)c2)c2cccc(F)c2)CC1`, for which the Stability result with Plasma [1] is listed as “Unstable”. The remaining at 0.5 h in [2] stood at 26%. In addition, the remaining at 0.75 h in data set [3] is 12%. Also, the values for the IC50 in [4] and in data set [5] were 1.2 nM and 1.1 nM, respectively. Also, the remaining at 20 min in [6] turned out to be 42%. For the same molecule, in [7], the remaining at 10 min turned out to be 71%. Moreover, in data set [8], the remaining at 5 min turned out to be 86%. In addition, in data set [9], the remaining at 1 h turned out to be 4%.
For orientation: bioavailability means the share of a dose that reaches the circulation, judged against a reference dose that is usually intravenous. Read a high bioavailability as much systemic uptake. In general, clearance refers to a measure of how efficiently the substance is removed, as volume per time. Low readings indicate inefficient removal, high ones efficient removal. For orientation: half-life means how long it takes for the measured level to halve. In data set [10], `Cc1nc(Oc2ccc(NS(C)(=O)=O)cc2)ccc1CN1CCC(N(C(=O)Nc2cc(F)c(C(N)=O)cc2F)c2cccc(F)c2)CC1` displayed a bioavailability of 53%. Besides, the clearance in data set [11] is 15 mL/min/kg. In addition, in [12], the half-life was 3.9 h.
`Cc1nc(Oc2ccc(NS(C)(=O)=O)cc2)ccc1CN1CCC(N(C(=O)Nc2ccc(C(N)=O)nc2C)c2cccc(F)c2)CC1`: the bioavailability in data set [10] was determined as 49%. Moreover, the remaining at 0.5 h in data set [2] amounted to 84%. Besides, the remaining at 0.75 h in data set [3] came to 74%. In [11], the clearance stood at 11.7 mL/min/kg. The IC50 in data set [4] worked out at 3.6 nM; in data set [5], 3.9 nM. The half-life in data set [12] is 2.8 h. Also, in data set [6], the remaining at 20 min is 95%. Also, the remaining at 10 min in data set [7] is 91%. Also, the remaining at 5 min in data set [8] came to 94%. Also, in [9], the remaining at 1 h was determined as 71%.
Molecule `Cc1cc(NC(=O)N(c2cccc(F)c2)C2CCN(Cc3ccc(Oc4ccc(NS(C)(=O)=O)cc4)nc3C)CC2)cnc1C(N)=O` yielded a bioavailability in data set [10] of 30%. In [2], the remaining at 0.5 h worked out at 120%. Moreover, the Stability in the data set with Plasma [13] was 123%; in the data set on Plasma [14] it was 134%. The clearance in data set [11] was 37 mL/min/kg. Further, the figures for the IC50 in data set [4] and in data set [5] were 1.9 nM and 5.3 nM, respectively. Further, the half-life in data set [12] was 2 h. The remaining at 20 min in data set [6] turned out to be 94%. Moreover, the remaining at 10 min in [7] was found to be 88%. For the same molecule, the remaining at 5 min in data set [8] is 90%.
As for `CS(=O)(=O)Nc1ccc(Oc2ccc(CN3CCC(N(C(=O)Nc4ccc(C(N)=O)nc4)c4ccccc4)CC3)c(C3CC3)n2)cc1`, the Activity entry in the data set on HOS and in the data set with PBL was “Non-toxic” each time. Moreover, the IC50 worked out at 1 nM in data set [4] and 2.2 nM in [5].
`Cc1nc(Oc2ccc(NS(C)(=O)=O)cc2F)ccc1CN1CCC(N(C(=O)Nc2ccc(C(N)=O)nc2)c2cccc(F)c2)CC1`: the Activity result in the data set with HOS and in the data set with PBL was “Non-toxic” in each case. The IC50 in data set [4] is 1.2 nM; in data set [5], 0.5 nM.
In the case of `Cc1cc(NS(C)(=O)=O)ccc1Oc1ccc(CN2CCC(N(C(=O)Nc3ccc(C(N)=O)nc3)c3cccc(F)c3)CC2)c(C)n1`, the Activity result with HOS and with PBL was “Non-toxic” in each case. Besides, the IC50 in data set [4] came to 1 nM; in data set [5], 0.6 nM.
Consider `Cc1nc(Oc2ccc(NS(C)(=O)=O)cc2Cl)ccc1CN1CCC(N(C(=O)Nc2ccc(C(N)=O)nc2)c2cccc(F)c2)CC1`, for which the Activity result in the data set on HOS and in the data set with PBL was “Non-toxic” throughout. Also, the figures for the IC50 in data set [4] and in data set [5] were 1.2 nM and 1.1 nM, respectively.
Regarding `CS(=O)(=O)Nc1ccc(Oc2ccc(CN3CCC(N(C(=O)Nc4ccc(C(N)=O)nc4)c4ccccc4)CC3)cn2)cc1`, in data set [4], the IC50 is 10 nM.
As for `Cc1nc(Oc2ccc(NS(C)(=O)=O)cc2)ccc1CN1CCC(N(C(=O)Nc2ccc(C(N)=O)nc2)c2cccc(F)c2)CC1`, the Activity entry with HOS and in the data set with PBL was “Non-toxic” each time. Further, the remaining at 0.5 h in data set [2] is 25%. The remaining at 0.75 h in data set [3] stood at 11%. For the same molecule, the IC50 in data set [4] stood at 1 nM; in [5] it was 0.8 nM. Also, in data set [6], the remaining at 20 min is 44%. In addition, in data set [7], the remaining at 10 min stood at 67%. Also, the remaining at 5 min in data set [8] amounted to 85%. Besides, in data set [9], the remaining at 1 h is 3%.
As for `CS(=O)(=O)Nc1ccc(Oc2ccc(CN3CCC(N(C(=O)Nc4ccc(C#N)nc4)c4ccccc4)CC3)cn2)cc1`, the IC50 in data set [4] was determined as 44 nM.
With `Cc1nc(Oc2ccc(NS(C)(=O)=O)cc2)ncc1CN1CCC(N(C(=O)Nc2ccc(C(N)=O)nc2)c2cccc(F)c2)CC1`, the Activity result with HOS and in the data set on PBL was “Non-toxic” each time. In addition, the IC50 in data set [4] came to 2.4 nM; in [5], 0.9 nM.
